Earlier results in patent publication EP0114993B1, “Renin inhibitory tripeptides” (Merck & Co., Inc., priority 1982, dated 1990).

Test system: hog renin
Conditions: after the injection of hog renin into nephrectomized rats; Gross et al., Science 175:656, 1971

pepstatin
blood pressure in vivo: reduce blood pressure
